The structures appear in SMILES notation. pIC50: −log10 of the molar value.

The term pIC50 denotes −log10 of the IC50, conventionally taken in molar units.

Chain of TARP γ8 dependent AMPA receptor (GRIA1o-CACNG8 fusion construct) (P42261 other isoform, or with tags, fused parts or gaps): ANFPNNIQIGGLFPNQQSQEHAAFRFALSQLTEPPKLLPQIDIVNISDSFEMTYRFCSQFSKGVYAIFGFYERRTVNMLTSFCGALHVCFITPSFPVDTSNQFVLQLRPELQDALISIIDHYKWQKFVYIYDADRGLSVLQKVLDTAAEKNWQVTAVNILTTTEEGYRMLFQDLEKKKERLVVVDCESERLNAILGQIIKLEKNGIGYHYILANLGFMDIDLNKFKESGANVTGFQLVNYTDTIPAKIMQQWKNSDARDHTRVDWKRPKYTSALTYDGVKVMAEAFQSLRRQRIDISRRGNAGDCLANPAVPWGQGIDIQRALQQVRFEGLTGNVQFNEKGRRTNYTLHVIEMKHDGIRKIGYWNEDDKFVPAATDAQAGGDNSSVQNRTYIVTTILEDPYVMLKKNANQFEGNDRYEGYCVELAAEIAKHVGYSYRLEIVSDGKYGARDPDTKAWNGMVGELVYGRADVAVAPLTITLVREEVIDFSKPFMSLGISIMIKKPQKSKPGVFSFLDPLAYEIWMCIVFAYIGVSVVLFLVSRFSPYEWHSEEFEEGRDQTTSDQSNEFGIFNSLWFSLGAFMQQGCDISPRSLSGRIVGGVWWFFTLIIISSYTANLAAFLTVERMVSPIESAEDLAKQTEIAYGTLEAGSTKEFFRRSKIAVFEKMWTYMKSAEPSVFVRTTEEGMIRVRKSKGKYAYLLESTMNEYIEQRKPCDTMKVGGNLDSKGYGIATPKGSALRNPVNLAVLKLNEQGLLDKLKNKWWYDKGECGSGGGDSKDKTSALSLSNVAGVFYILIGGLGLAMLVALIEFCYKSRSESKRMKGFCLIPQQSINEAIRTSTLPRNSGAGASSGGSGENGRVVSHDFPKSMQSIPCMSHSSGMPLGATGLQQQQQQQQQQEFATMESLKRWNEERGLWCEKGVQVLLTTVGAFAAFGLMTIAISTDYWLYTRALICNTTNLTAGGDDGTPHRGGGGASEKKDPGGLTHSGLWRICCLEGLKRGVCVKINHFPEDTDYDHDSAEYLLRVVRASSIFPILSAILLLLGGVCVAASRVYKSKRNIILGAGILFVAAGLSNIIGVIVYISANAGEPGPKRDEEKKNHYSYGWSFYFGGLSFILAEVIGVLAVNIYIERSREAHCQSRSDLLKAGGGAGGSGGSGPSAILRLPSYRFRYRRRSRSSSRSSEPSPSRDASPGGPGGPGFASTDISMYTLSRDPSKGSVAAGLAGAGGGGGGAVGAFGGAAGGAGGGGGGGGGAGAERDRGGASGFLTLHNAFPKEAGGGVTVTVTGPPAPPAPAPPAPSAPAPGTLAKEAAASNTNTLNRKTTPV

The experiment deals with TARP γ8 dependent AMPA receptor (GRIA1o-CACNG8 fusion construct) (Homo sapiens (Human), UniProt P42261+Q8WXS5). As to the kind of experiment: Calcium flux assay (FLIPR), inhibition of glutamate response of GluA1o-γ8 channel. Format: cell-based. As to conditions: HEK293 cells stably expressing GRIA1o-CACNG8 fusion; calcium flux after 15 μM glutamate; negative log of the IC50 in molar. The procedure, abridged:
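HEK293 clonal line stably expressing a GRIA1o-CACNG8 fusion (1:1 GluA1o:γ8), loaded with Calcium-5/6 dye plus compound in HEPES buffer pH 7.4. FLIPR calcium flux read after 15 μM glutamate; normalized to no-compound and 10 μM CP465022 controls. Four-parameter logistic fit gives IC50, reported as pIC50.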
On the technique in general: A change in cytosolic calcium serves as a functional read-out for many receptors and channels.
`Fc1ccc(-c2ccc3nc(C(F)(F)F)nn3c2-c2ccc3[nH]ncc3c2)cc1` [Example 56, 6-(4-Fluorophenyl)-5-(1H-indazol-5-yl)-2-(trifluoromethyl)-[1,2,4]triazolo[1,5-a]pyridine]: the pIC50 was 8.90. The value for `Cc1cc(-c2c(-c3ccncc3)ccc3nc(C(F)(F)F)nn23)cc2cn[nH]c12` [Example 59, 5-(7-Methyl-1H-indazol-5-yl)-6-(pyridin-4-yl)-2-(trifluoromethyl)-[1,2,4]triazolo[1,5-a]pyridine] was 8.20; that for `CCCc1nc2c(Cl)cc(C(F)(F)F)c(-c3cc(Cl)c4c(c3)CC(=O)N4)n2n1` [Example 97, 7-Chloro-5-(8-chloro-2-propyl-6-(trifluoromethyl)-[1,2,4]triazolo[1,5-a]pyridin-5-yl)indolin-2-one] was 9.30. The value for `Cc1nc2ccc(-c3ccc(F)cc3)c(-c3cc(C)c4[nH]ncc4c3)n2n1` [Example 60, 6-(4-Fluorophenyl)-2-methyl-5-(7-methyl-1H-indazol-5-yl)-[1,2,4]triazolo[1,5-a]pyridine] was 8.90; that for `CCc1nc2ccc(C(F)(F)F)c(-c3cc(Cl)c4[nH]ncc4c3)n2n1` [Example 25, 5-(7-Chloro-1H-indazol-5-yl)-2-ethyl-6-(trifluoromethyl)-[1,2,4]triazolo[1,5-a]pyridine] was 9.40. In the case of `CCc1cc(C(F)(F)F)c(-c2cc(C)c3[nH]ncc3c2)n2nc(C3CC3)nc12` [Example 81, 2-Cyclopropyl-8-ethyl-5-(7-methyl-1H-indazol-5-yl)-6-(trifluoromethyl)-[1,2,4]triazolo[1,5-a]pyridine], the pIC50 is 9.30. Take `CCc1cc(C(F)F)c(-c2cc(C)c3[nH]ncc3c2)n2nc(C(F)(F)F)nc12` [Example 92, 6-(Difluoromethyl)-8-ethyl-5-(7-methyl-1H-indazol-5-yl)-2-(trifluoromethyl)-[1,2,4]triazolo[1,5-a]pyridine]: the pIC50 is 9.00.

Take `Cc1cc(-c2c(C(F)(F)F)ccc3nc(C(F)(F)F)nn23)cc2c1NC(=O)C2` [Example 4, 5-(2,6-Bis(trifluoromethyl)-[1,2,4]triazolo[1,5-a]pyridin-5-yl)-7-methylindolin-2-one]: the pIC50 is 9.30. The value for `Cc1cc(-c2c(C(F)(F)F)ccc3cc(C4CC4)nn23)cc2c1NC(=O)C2` [Example 67, 5-(2-Cyclopropyl-6-(trifluoromethyl)pyrazolo[1,5-a]pyridin-7-yl)-7-methylindolin-2-one] was 10.30; that for `Cc1cc(-c2c(C(F)(F)F)ccc3nc(C4CC4)nn23)cc2cn[nH]c12` [Example 39, 2-Cyclopropyl-5-(7-methyl-1H-indazol-5-yl)-6-(trifluoromethyl)-[1,2,4]triazolo[1,5-a]pyridine] was 9.50. As to `Cc1cc(-c2c(C(F)F)ccc3nc(C(F)(F)F)nn23)cc2c1NC(=O)C2` [Example 19, 5-[6-(Difluoromethyl)-2-(trifluoromethyl)-[1,2,4]triazolo[1,5-a]pyridin-5-yl]-7-methyl-indolin-2-one], the pIC50 was 9.20. The result for `CC(C)c1nc2ccc(C(F)(F)F)c(-c3cc(Cl)c4[nH]ncc4c3)n2n1` [Example 36, 5-(7-Chloro-1H-indazol-5-yl)-2-isopropyl-6-(trifluoromethyl)-[1,2,4]triazolo[1,5-a]pyridine] reads 10.10; that for `CCc1nc2c(CC)cc(C(F)(F)F)c(-c3cc(C)c4[nH]ncc4c3)n2n1` [Example 90, 2,8-Diethyl-5-(7-methyl-1H-indazol-5-yl)-6-(trifluoromethyl)-[1,2,4]triazolo[1,5-a]pyridine], 8.50; that for `CCc1cc(C(F)(F)F)c(-c2cc(Cl)c3[nH]ncc3c2)n2nc(C(F)F)nc12` [Example 87, 5-(7-Chloro-1H-indazol-5-yl)-2-(difluoromethyl)-8-ethyl-6-(trifluoromethyl)-[1,2,4]triazolo[1,5-a]pyridine], 9.40. With `O=c1[nH]c2ccc(-c3c(C(F)(F)F)ccc4nc(C(F)F)nn34)cc2s1` [Example 54, 6-(2-(Difluoromethyl)-6-(trifluoromethyl)-[1,2,4]triazolo[1,5-a]pyridin-5-yl)benzo[d]thiazol-2(3H)-one], the pIC50 is 9.10. In the case of `COc1ccc2nc(C(F)(F)F)nn2c1-c1cc(Cl)c2[nH]ncc2c1` [Example 50, 5-(7-Chloro-1H-indazol-5-yl)-6-methoxy-2-(trifluoromethyl)-[1,2,4]triazolo[1,5-a]pyridine], the pIC50 is 9.00. The result for `Cc1cc(C(F)F)c(-c2cc(Cl)c3c(c2)CC(=O)N3)n2nc(C(F)(F)F)nc12` [Example 110, 7-Chloro-5-(6-(difluoromethyl)-8-methyl-2-(trifluoromethyl)-[1,2,4]triazolo[1,5-a]pyridin-5-yl)indolin-2-one] reads 9.10; that for `Cc1cc(C(F)F)c(-c2cc(Cl)c3[nH]ncc3c2)n2nc(C(F)(F)F)nc12` [Example 77, 5-(7-Chloro-1H-indazol-5-yl)-6-(difluoromethyl)-8-methyl-2-(trifluoromethyl)-[1,2,4]triazolo[1,5-a]pyridine], 9.60.

In the case of `CCc1cc(-c2c(C(F)(F)F)cc(C)c3nc(C(F)(F)F)nn23)cc2c1NC(=O)C2` [Example 104, 7-Ethyl-5-(8-methyl-2,6-bis(trifluoromethyl)-[1,2,4]triazolo[1,5-a]pyridin-5-yl)indolin-2-one], the pIC50 is 9.80. The result for `Cc1cc(C(F)(F)F)c(-c2cc(Cl)c3c(c2)CC(=O)N3)n2nc(C3CC3)nc12` [Example 75, 7-Chloro-5-(2-cyclopropyl-8-methyl-6-(trifluoromethyl)-[1,2,4]triazolo[1,5-a]pyridin-5-yl)indolin-2-one] reads 9.90.

With `Cc1cc(-c2c(C(F)F)cc(C)c3cc(C(F)(F)F)nn23)cc2cn[nH]c12` [Example 123, 6-(Difluoromethyl)-4-methyl-7-(7-methyl-1H-indazol-5-yl)-2-(trifluoromethyl)pyrazolo[1,5-a]pyridine], the pIC50 was 9.90. The result for `O=C1Cc2cc(-c3c(C(F)F)ccc4nc(C(F)(F)F)nn34)cc(Cl)c2N1` [Example 18, 7-Chloro-5-(6-(difluoromethyl)-2-(trifluoromethyl)-[1,2,4]triazolo[1,5-a]pyridin-5-yl)indolin-2-one] reads 9.60. The result for `CCc1cc(C(F)F)c(-c2cc(Cl)c3[nH]ncc3c2)n2nc(C(F)(F)F)nc12` [Example 91, 5-(7-Chloro-1H-indazol-5-yl)-6-(difluoromethyl)-8-ethyl-2-(trifluoromethyl)-[1,2,4]triazolo[1,5-a]pyridine] reads 9.30; that for `CCc1nc2c(F)cc(C(F)(F)F)c(-c3cc(Cl)c4[nH]ncc4c3)n2n1` [Example 31, 5-(7-Chloro-1H-indazol-5-yl)-2-ethyl-8-fluoro-6-(trifluoromethyl)-[1,2,4]triazolo[1,5-a]pyridine], 8.90; that for `Cc1cc(-c2c(C(F)(F)F)cc(C)c3nc(C(F)(F)F)nn23)cc2c1NC(=O)C2` [Example 105, 7-Methyl-5-(8-methyl-2,6-bis(trifluoromethyl)-[1,2,4]triazolo[1,5-a]pyridin-5-yl)indolin-2-one], 9.50.

As for `CCCc1nc2c(C)cc(C(F)(F)F)c(-c3cc(C)c4[nH]ncc4c3)n2n1` [Example 84, 8-Methyl-5-(7-methyl-1H-indazol-5-yl)-2-propyl-6-(trifluoromethyl)-[1,2,4]triazolo[1,5-a]pyridine], the pIC50 is 9.00.

For `FC(F)c1nc2ccc(C(F)(F)F)c(-c3cc(Cl)c4[nH]ncc4c3)n2n1` [Example 7, 5-(7-Chloro-1H-indazol-5-yl)-2-(difluoromethyl)-6-(trifluoromethyl)-[1,2,4]triazolo[1,5-a]pyridine], the pIC50 was 10.20. As for `CCc1nc2c(C)cc(C(F)(F)F)c(-c3cc4c(c(C(F)(F)F)c3)NC(=O)C4)n2n1` [Example 102, 5-(2-Ethyl-8-methyl-6-(trifluoromethyl)-[1,2,4]triazolo[1,5-a]pyridin-5-yl)-7-(trifluoromethyl)indolin-2-one], the pIC50 was 8.80.

With `Cc1cc(-c2c(-c3ccc(F)cc3)ccc3nc(C4CC4)nn23)cc2cn[nH]c12` [Example 62, 2-Cyclopropyl-6-(4-fluorophenyl)-5-(7-methyl-1H-indazol-5-yl)-[1,2,4]triazolo[1,5-a]pyridine], the pIC50 was 9.90. The result for `Cc1cc(C(F)F)c(-c2cc(Cl)c3[nH]ncc3c2)n2nc(C(F)(F)F)cc12` [Example 125, 7-(7-Chloro-1H-indazol-5-yl)-6-(difluoromethyl)-4-methyl-2-(trifluoromethyl)pyrazolo[1,5-a]pyridine] reads 10.00. The value for `O=C1Cc2cc(-c3c(C(F)(F)F)ccc4cc(C5CC5)nn34)cc(Cl)c2N1` [Example 68, 5-(2-Cyclopropyl-6-(trifluoromethyl)pyrazolo[1,5-a]pyridin-7-yl)-7-chloroindolin-2-one] was 10.70; that for `CC(F)(F)c1ccc2nc(C(F)(F)F)nn2c1-c1cc(Cl)c2[nH]ncc2c1` [Example 53, 5-(7-Chloro-1H-indazol-5-yl)-6-(1,1-difluoroethyl)-2-(trifluoromethyl)-[1,2,4]triazolo[1,5-a]pyridine] was 10.30; that for `CCc1cc(C(F)(F)F)c(-c2cc(Cl)c3[nH]ncc3c2)n2nc(C3CC3)nc12` [Example 80, 5-(7-Chloro-1H-indazol-5-yl)-2-cyclopropyl-8-ethyl-6-(trifluoromethyl)-[1,2,4]triazolo[1,5-a]pyridine] was 9.80.

Turning to `Cc1cc(-c2c(-c3cccnc3)ccc3nc(C(F)(F)F)nn23)cc2cn[nH]c12` [Example 58, 5-(7-Methyl-1H-indazol-5-yl)-6-(pyridin-3-yl)-2-(trifluoromethyl)-[1,2,4]triazolo[1,5-a]pyridine], the pIC50 is 9.10.

Values taken from patent publication US10087185B2 (Janssen Pharmaceutica NV, priority 2016, dated 2018).
